Data from ChEMBL document CHEMBL1157712, “Hit to lead account of the discovery of bisbenzamide and related ureidobenzamide inhibitors of Rho kinase” (J Med Chem, 2010).
Converted amounts (≈) assume the structure as drawn.

Assays:
[1] = target: T1, Protein kinase C epsilon type (Homo sapiens, UniProt Q02156); test: Inhibition of PKCepsilon
T1 sequence (Q02156 whole entry): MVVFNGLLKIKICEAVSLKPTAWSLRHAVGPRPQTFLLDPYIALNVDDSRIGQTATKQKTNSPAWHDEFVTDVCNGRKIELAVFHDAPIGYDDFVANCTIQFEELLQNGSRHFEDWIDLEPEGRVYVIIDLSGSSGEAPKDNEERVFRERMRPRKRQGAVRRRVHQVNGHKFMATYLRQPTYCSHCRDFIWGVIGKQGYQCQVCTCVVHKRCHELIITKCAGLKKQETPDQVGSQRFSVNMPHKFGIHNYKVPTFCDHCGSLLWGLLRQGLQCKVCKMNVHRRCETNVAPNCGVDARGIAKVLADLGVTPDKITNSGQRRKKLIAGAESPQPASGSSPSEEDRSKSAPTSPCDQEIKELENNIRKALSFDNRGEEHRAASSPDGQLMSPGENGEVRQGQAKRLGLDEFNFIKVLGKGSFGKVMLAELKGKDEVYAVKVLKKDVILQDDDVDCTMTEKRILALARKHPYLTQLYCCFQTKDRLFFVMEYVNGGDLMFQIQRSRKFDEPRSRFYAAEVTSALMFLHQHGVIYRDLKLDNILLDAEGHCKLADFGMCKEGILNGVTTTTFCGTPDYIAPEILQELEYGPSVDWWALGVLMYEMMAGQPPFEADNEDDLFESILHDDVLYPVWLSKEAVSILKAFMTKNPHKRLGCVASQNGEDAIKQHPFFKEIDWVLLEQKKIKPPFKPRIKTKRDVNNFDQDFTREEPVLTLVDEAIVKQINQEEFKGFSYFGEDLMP

[2] = target: Serine/threonine-protein kinase N2 (Homo sapiens, UniProt Q16513)
[3] = target: T2, Rho-associated protein kinase 2 (Homo sapiens, UniProt O75116)
Description: (§2) Inhibition of human ROCK2 by homogenous luciferase assay

ROCK1 (Homo sapiens) = test: Inhibition of ROCK1
[4] = target: Serine/threonine-protein kinase MRCK beta (Homo sapiens) (UniProt Q9Y5S2); test: Inhibition of CDC42BPB
[5] = target: T2, Rho-associated protein kinase 2; remark: listed apart in the source
Description: as §2

[6] = (§1) Permeability from apical to basolateral side in human Caco-2 cells; assay type: ADME, cell-based; details: Caco-2, read-out: permeability
[7] = Permeability from basolateral to apical side in human Caco-2 cells; assay type: ADME, cell-based; details: read-out: permeability
[8] = Membrane permeability by PAMPA assay; assay type: ADME; details: read-out: permeability
[9] = target: T2, Rho-associated protein kinase 2; test: Inhibition of human ROCK2 by IMAP assay
[10] = Solubility at pH 7.4; assay type: physicochemical; details: buffer
Cytochrome P450 1A2 [11] = target: T3, Cytochrome P450 1A2 (Homo sapiens, UniProt P05177); test: Inhibition of human CYP1A2 by LCMS/MS assay; assay type: ADME
T3 sequence (P05177 whole entry): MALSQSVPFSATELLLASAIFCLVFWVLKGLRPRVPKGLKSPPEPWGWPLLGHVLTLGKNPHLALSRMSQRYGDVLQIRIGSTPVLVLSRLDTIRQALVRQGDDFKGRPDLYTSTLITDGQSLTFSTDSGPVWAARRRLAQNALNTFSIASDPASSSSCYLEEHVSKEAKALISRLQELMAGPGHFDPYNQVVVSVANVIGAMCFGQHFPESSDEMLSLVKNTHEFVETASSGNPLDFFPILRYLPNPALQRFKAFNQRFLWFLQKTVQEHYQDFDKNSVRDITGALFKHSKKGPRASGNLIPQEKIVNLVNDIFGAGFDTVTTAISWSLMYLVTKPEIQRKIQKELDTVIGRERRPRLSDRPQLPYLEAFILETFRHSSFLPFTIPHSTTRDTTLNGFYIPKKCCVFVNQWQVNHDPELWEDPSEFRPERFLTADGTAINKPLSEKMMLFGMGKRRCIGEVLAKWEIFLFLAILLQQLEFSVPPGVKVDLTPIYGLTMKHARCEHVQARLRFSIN

Cytochrome P450 2C9 [12] = target: T4, Cytochrome P450 2C9 (Homo sapiens, UniProt P11712); test: Inhibition of human CYP2C9 by LCMS/MS assay; assay type: ADME
Cytochrome P450 2D6 [13] = target: T5, Cytochrome P450 2D6 (Homo sapiens, UniProt P10635); test: Inhibition of human CYP2D6 by LCMS/MS assay; assay type: ADME
Cytochrome P450 3A4 [14] = target: T6, Cytochrome P450 3A4 (Homo sapiens, UniProt P08684); test: Inhibition of human CYP3A4 by LCMS/MS assay; assay type: ADME
[15] = Metabolic stability in human liver microsomes assessed as half life; assay type: ADME, Microsome
Cytochrome P450 1A2 [16] = target: T3, Cytochrome P450 1A2; test: Inhibition of human CYP1A2 by fluorescence assay; assay type: ADME
Cytochrome P450 2C9 [17] = target: T4, Cytochrome P450 2C9; test: Inhibition of human CYP2C9 by fluorescence assay; assay type: ADME
Cytochrome P450 2C19 = Cytochrome P450 2C19 (Homo sapiens, UniProt P33261); test: Inhibition of human CYP2C19 by fluorescence assay; assay type: ADME
Cytochrome P450 2D6 [18] = target: T5, Cytochrome P450 2D6; test: Inhibition of human CYP2D6 by fluorescence assay; assay type: ADME
Rattus norvegicus = species: Rattus norvegicus; test: Induction of relaxation activity of phenylephrine-induced Sprague-Dawley rat aortic ring contraction; assay type: functional; details: Aorta
Cytochrome P450 3A4 [19] = target: T6, Cytochrome P450 3A4; test: Inhibition of human CYP3A4 using BFC substrate by fluorescence assay; assay type: ADME
Cytochrome P450 3A4 [20] = target: T6, Cytochrome P450 3A4; test: Inhibition of human CYP3A4 using BQ substrate by fluorescence assay; assay type: ADME
Caco-2 = test: as §1; assay type: ADME, cell-based; details: caco-2, BLD = below limit of detection

T4 sequence (P11712 whole entry): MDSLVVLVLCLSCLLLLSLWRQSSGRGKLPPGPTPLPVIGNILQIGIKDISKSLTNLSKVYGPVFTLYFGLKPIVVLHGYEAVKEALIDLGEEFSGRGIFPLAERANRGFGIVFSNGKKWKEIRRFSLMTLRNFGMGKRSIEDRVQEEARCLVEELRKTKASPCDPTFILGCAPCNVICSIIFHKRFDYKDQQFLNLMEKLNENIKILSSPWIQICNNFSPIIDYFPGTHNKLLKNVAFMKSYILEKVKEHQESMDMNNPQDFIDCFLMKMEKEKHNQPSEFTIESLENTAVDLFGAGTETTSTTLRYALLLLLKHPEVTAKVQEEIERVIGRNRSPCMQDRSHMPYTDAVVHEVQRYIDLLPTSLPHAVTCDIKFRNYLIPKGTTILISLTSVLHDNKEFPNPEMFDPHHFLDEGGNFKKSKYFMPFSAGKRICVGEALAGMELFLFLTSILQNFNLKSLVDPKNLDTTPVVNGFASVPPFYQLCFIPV
T6 sequence (P08684 whole entry): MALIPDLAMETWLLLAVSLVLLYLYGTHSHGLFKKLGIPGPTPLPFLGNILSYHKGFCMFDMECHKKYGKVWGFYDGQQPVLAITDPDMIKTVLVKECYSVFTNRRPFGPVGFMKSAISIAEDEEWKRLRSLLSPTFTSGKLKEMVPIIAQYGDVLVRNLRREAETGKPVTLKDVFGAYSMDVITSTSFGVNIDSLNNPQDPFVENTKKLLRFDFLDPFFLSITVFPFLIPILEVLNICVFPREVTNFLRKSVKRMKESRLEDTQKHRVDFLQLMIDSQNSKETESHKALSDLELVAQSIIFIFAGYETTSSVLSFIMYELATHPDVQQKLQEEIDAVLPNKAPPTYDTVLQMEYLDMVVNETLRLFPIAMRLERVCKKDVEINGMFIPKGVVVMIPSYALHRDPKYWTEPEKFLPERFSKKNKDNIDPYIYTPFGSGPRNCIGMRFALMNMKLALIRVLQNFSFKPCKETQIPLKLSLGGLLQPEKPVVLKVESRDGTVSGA
Serine/threonine-protein kinase N2, sequence (Q16513 whole entry): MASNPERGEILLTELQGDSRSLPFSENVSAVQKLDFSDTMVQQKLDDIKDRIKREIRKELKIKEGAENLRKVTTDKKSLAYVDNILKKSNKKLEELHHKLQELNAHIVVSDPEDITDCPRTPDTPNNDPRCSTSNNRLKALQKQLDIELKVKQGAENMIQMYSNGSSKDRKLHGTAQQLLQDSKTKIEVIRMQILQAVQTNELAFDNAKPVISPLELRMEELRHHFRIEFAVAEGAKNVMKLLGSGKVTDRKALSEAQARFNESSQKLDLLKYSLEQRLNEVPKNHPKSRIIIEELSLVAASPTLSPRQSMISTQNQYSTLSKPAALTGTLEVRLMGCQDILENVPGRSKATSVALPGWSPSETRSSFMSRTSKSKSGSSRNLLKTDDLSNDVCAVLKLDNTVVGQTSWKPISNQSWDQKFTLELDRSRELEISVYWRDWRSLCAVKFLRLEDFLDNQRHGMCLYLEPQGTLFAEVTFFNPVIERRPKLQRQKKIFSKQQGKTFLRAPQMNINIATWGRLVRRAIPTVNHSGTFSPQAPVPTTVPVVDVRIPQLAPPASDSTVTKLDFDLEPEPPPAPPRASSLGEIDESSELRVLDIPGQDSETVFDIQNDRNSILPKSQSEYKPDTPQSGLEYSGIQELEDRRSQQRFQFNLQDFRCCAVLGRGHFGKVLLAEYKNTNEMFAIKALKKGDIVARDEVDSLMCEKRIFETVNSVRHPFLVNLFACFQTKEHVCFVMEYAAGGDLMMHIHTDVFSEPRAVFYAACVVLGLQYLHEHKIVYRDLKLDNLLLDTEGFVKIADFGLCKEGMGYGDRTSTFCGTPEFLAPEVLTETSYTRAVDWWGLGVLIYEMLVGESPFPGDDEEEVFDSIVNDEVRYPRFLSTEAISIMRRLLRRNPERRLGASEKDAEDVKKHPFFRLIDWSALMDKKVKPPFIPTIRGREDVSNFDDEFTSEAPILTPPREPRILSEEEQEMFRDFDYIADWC
T5 sequence (P10635 whole entry): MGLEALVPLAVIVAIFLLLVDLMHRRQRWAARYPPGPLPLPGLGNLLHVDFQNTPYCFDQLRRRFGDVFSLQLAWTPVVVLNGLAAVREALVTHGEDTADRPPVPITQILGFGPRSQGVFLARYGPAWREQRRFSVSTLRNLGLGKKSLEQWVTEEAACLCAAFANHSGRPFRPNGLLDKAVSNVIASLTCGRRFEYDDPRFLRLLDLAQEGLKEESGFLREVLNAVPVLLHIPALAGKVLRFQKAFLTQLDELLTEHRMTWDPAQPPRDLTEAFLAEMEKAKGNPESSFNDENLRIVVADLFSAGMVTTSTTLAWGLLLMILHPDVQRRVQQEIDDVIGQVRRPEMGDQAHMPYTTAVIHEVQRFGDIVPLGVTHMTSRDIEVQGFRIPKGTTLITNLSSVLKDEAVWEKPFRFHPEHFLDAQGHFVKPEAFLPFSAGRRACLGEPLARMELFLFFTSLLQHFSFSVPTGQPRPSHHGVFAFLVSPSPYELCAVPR
Cytochrome P450 2C19, sequence (P33261 whole entry): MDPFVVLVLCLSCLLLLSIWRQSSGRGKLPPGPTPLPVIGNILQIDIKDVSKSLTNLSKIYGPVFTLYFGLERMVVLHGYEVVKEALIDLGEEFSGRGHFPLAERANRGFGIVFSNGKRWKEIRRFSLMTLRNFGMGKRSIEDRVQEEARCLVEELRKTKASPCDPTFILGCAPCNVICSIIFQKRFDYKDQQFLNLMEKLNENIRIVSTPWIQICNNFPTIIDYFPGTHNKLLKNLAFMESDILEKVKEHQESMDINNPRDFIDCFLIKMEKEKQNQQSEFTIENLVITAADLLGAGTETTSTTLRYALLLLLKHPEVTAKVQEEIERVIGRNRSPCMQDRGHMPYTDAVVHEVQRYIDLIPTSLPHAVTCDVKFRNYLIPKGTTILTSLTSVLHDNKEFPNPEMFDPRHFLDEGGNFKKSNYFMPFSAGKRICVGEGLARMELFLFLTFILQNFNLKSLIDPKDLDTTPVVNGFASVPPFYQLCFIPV
T2 sequence (O75116 whole entry): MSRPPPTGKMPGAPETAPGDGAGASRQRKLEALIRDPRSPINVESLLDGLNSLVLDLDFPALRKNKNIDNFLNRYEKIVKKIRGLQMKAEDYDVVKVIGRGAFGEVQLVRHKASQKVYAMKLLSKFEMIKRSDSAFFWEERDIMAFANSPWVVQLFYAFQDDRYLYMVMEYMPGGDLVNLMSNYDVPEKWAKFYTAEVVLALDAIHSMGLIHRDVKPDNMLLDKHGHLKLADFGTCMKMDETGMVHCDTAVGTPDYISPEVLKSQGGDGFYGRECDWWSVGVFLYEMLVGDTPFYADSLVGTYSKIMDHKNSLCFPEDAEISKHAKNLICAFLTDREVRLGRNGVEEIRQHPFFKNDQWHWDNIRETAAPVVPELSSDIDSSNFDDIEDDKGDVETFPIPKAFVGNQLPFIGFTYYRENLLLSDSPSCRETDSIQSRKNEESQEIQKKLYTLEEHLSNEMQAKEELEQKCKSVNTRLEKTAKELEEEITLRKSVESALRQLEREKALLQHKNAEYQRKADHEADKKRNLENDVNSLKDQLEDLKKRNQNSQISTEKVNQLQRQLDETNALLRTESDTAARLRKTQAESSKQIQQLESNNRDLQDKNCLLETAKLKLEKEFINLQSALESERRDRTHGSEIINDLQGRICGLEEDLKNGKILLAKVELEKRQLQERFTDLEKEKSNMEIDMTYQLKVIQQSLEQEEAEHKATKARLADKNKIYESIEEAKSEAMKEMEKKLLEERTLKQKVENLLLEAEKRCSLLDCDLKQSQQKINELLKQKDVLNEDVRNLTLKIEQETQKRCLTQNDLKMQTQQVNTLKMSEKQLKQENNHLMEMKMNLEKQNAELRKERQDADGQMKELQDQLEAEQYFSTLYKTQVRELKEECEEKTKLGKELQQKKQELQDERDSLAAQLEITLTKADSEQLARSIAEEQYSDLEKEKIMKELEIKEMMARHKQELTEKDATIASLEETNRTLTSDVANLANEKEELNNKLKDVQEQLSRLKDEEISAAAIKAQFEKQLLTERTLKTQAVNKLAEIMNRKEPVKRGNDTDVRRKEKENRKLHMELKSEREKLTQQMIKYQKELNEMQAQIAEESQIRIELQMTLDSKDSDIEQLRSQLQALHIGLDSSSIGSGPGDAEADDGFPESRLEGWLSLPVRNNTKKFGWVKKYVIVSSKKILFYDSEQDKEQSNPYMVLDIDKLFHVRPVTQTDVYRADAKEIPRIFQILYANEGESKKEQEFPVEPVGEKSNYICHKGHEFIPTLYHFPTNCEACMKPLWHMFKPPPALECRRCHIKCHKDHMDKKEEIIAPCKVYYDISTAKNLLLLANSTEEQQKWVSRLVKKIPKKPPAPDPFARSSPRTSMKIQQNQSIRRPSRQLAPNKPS

N#Cc1ccc(NC(=O)NCc2cccc(C(=O)NCCC3CCCNC3)c2)cc1 (stereo unspecified)
IC50 [1]: > 5 µM | IC50 [2]: 1.7 µM | IC50 [3]: 0.018 µM | IC50 (ROCK1 (Homo sapiens)): 0.031 µM | IC50 [4]: > 5 µM

O=C(NCCc1ccncc1)c1cccc(CNC(=O)c2ccc3c(c2)OCO3)c1
IC50 [3]: > 7000 µM

COc1ccc(C(=O)NCc2cccc(C(=O)NCC3CCCO3)c2)cc1OC (racemic)
IC50 [5]: 1.2 µM

COc1ccc(CC(=O)Nc2cccc(C(=O)NCCC3CCCNC3)c2)cc1OC (stereo unspecified)
IC50 [5]: 3200 µM

COc1ccc(C(=O)NCc2cccc(C(=O)Nc3ccc(CN(C)C)cc3)c2)cc1C
Papp A→B [6]: 7.9 ×10⁻⁶ cm/s | Papp B→A [7]: 30.8 ×10⁻⁶ cm/s | Papp [8]: 21 ×10⁻⁶ cm/s | IC50 [9]: 0.66 µM | solubility [10]: > 88 µg/mL | IC50 (Cytochrome P450 1A2 [11]): > 30 µM | IC50 (Cytochrome P450 2C9 [12]): 12.5 µM | IC50 (Cytochrome P450 2D6 [13]): > 30 µM | IC50 (Cytochrome P450 3A4 [14]): 13.5 µM

CN(C)Cc1ccc(NC(=O)c2cccc(CNC(=O)Nc3cccc(C(N)=O)c3)c2)cc1
IC50 [9]: 0.29 µM | IC50 [5]: 240 µM

COc1ccc(NC(=O)Cc2cccc(NC(=O)CCC3CCCNC3)c2)cc1OC (stereo unspecified)
IC50 [5]: 37 µM

COc1ccc(C(=O)NCc2cccc(C(=O)Nc3ccc4cnccc4c3)c2)cc1OC
IC50 [5]: 685 µM

N#Cc1cccc(NC(=O)NCc2cccc(C(=O)NCC3CCCO3)c2)c1 (racemic)
IC50 [3]: 3.5 µM

N#Cc1ccc(NC(=O)NCc2cccc(C(=O)NCCC3CCNCC3)c2)cc1
IC50 [5]: 65 µM

CN(C)Cc1ccc(NC(=O)c2cccc(CNC(=O)c3ccc(O)c(O)c3)c2)cc1
IC50 [9]: > 6.4 µM | IC50 [3]: > 6 µM

CN(C)Cc1ccc(NC(=O)c2cccc(CNC(=O)Nc3ccc(C(N)=O)c(Cl)c3)c2)cc1
IC50 [9]: 0.18 µM | IC50 [5]: 74 µM

CN(C)Cc1ccc(NC(=O)c2cccc(CNC(=O)Nc3ccc(C#N)c(Cl)c3)c2)cc1
IC50 [9]: 0.045 µM | IC50 [5]: 10 µM

CN(C)Cc1ccc(NC(=O)c2cccc(CNC(=O)Nc3ccc(C#N)cc3)c2)cc1
IC50 [1]: > 5 µM | IC50 [9]: 0.16 µM | IC50 [2]: > 5 µM | IC50 [3]: 0.065 µM | IC50 [4]: > 5 µM

COc1ccc(C(=O)NCc2cccc(C(=O)Nc3ccc4c(c3)CN(C)CC4)c2)cc1OC
Papp A→B [6]: 0.3 ×10⁻⁶ cm/s | Papp B→A [7]: 27.1 ×10⁻⁶ cm/s | half-life [15]: 0.917 h | IC50 (Cytochrome P450 1A2 [16]): > 30 µM | IC50 (Cytochrome P450 2C9 [17]): > 30 µM | IC50 (Cytochrome P450 2C19): > 30 µM | IC50 (Cytochrome P450 2D6 [18]): > 30 µM | IC50 [1]: > 5 µM | Papp [8]: 16 ×10⁻⁶ cm/s | IC50 (Rattus norvegicus): 1.2 µM | solubility [10]: > 85 µg/mL | IC50 (Cytochrome P450 3A4 [19]): 1.7 µM | IC50 (Cytochrome P450 3A4 [20]): > 30 µM | IC50 [2]: > 5 µM | IC50 [3]: 0.046 µM | IC50 [4]: > 5 µM

COc1ccc(C(=O)NCc2cccc(C(=O)NCCC3CCNCC3)c2)cc1OC
Papp A→B [6]: 0.1 ×10⁻⁶ cm/s | Papp B→A [7]: 0.6 ×10⁻⁶ cm/s | half-life [15]: 1.45 h | IC50 (Cytochrome P450 1A2 [16]): > 30 µM | IC50 (Cytochrome P450 2C9 [17]): > 30 µM | IC50 (Cytochrome P450 2C19): > 30 µM | IC50 (Cytochrome P450 2D6 [18]): > 30 µM | IC50 [1]: > 5 µM | Papp [8]: 0.6 ×10⁻⁶ cm/s | solubility [10]: 67 µg/mL (≈ 157 µM) | IC50 (Cytochrome P450 3A4 [19]): > 30 µM | IC50 (Cytochrome P450 3A4 [20]): > 30 µM | IC50 [2]: > 5 µM | IC50 [4]: > 5 µM

COc1ccc(C(=O)NCc2cccc(C(=O)Nc3ccc(CN(C)C)cc3)c2)cc1C(F)(F)F
IC50 [9]: 0.35 µM | IC50 [5]: 160 µM

COc1ccc(NC(=O)NCc2cccc(C(=O)NCCC3CCCNC3)c2)cc1OC (stereo unspecified)
IC50 [5]: 1600 µM

N#Cc1ccc(NC(=O)NCc2cccc(C(=O)Nc3ccc4c(c3)CNCC4)c2)cc1
permeability (Caco-2): BLD | Papp B→A [7]: 8.8 ×10⁻⁶ cm/s | half-life [15]: 3.15 h | IC50 (Cytochrome P450 1A2 [16]): > 30 µM | IC50 (Cytochrome P450 2C9 [17]): 22 µM | IC50 (Cytochrome P450 2C19): > 30 µM | IC50 (Cytochrome P450 2D6 [18]): > 30 µM | IC50 [1]: > 5 µM | IC50 (Rattus norvegicus): 8.5 µM | IC50 [9]: 0.048 µM | solubility [10]: > 100 µg/mL | IC50 (Cytochrome P450 3A4 [19]): 5.9 µM | IC50 (Cytochrome P450 3A4 [20]): > 30 µM | IC50 [2]: 1.6 µM | IC50 [3]: 0.014 µM | IC50 [4]: > 5 µM

CN(C)Cc1ccc(NC(=O)c2cccc(CNC(=O)Nc3ccc(C(N)=O)cc3)c2)cc1
IC50 [9]: 0.014 µM | IC50 [5]: 8 µM

COc1ccc(C(=O)NCc2cccc(C(=O)Nc3ccc(CN(C)C)cc3)c2)cc1
IC50 [9]: > 6.5 µM
